Laboratory results: patent US20140242093A1, “METHODS AND COMPOSITIONS FOR MODULATING THE INNATE IMMUNE RESPONSE AND/OR MYOGENESIS IN A MAMMALIAN SUBJECT” (FRED HUTCHINSON CANCER RESEARCH CENTER, priority 2011, published 2014)

Test system: control human primary myoblasts
Experiment: Expression microarray of primary myoblasts transduced with lentivirus carrying DUX4-fl, DUX4-s or GFP
Procedure: Primary human myoblasts were collected and cultured as previously described (Snider et al., 2010). Primary myoblasts were maintained at or below 70% confluency for proliferation. For differentiation, cells were allowed to reach 95-100% confluency in growth medium. Once confluency was reached, the cells were changed to differentiation medium (F10 media supplemented with 1% horse serum, 10 μg/mL insulin, and 10 μg/mL transferrin, penicillin/streptomycin) and maintained for 4 days. Human RD cells were grown in DMEM in 10% bovine calf serum (Hyclone) and penicillin/streptomycin. The primary myoblasts were transduced with lentivirus carrying DUX-fl, DUX4- or GFP (MOI=15).
Expression microarrays were performed on the transduced cells at 24 hours after transduction as follows. […] Samples were analyzed by Illumina Human Whole Genome microarrays. Probe intensities were corrected, normalized, and summarized by the Lumi package of Bioconductor (Du et al., 2008). Differentially expressed genes were identified by the LIMMA package of Bioconductor (Wettenhall and Smyth, 2004). Gene set enrichment analysis (GSEA) was performed using the Bioconductor GOstats package (Falcon and Gentleman, 2007).

Substance: DUX4-fl: full-length DUX4 protein (SEQ ID NO:110), expressed from lentiviral or pCS2 vectors or in vitro translated
- ZBTB4 expression fc (cultured human skeletal muscle): −1.417
- ZC3H12A expression fc (cultured human skeletal muscle): −1.546
- ZFHX3 expression fc (cultured human skeletal muscle): −1.762
- ZFP36L2 expression fc (cultured human skeletal muscle): −1.545
- ZFP90 expression fc (cultured human skeletal muscle): −1.609
- ZNF337 expression fc (cultured human skeletal muscle): −1.693
- ZNF395 expression fc (cultured human skeletal muscle): −1.392
- Full.fc (expression fold change for DUX4-fl targets) (gene AVPI1): 2
- Full.fc (expression fold change for DUX4-fl targets) (gene BZW2): 2.7
- Full.fc (expression fold change for DUX4-fl targets) (gene C1orf63): 2.2
- Full.fc (expression fold change for DUX4-fl targets) (gene C6orf191): 2.1
- Full.fc (expression fold change for DUX4-fl targets) (gene C14orf102): 2.5
- Full.fc (expression fold change for DUX4-fl targets) (gene C14orf138): 1.7
- Full.fc (expression fold change for DUX4-fl targets) (gene C21orf91): 1.8
- Full.fc (expression fold change for DUX4-fl targets) (gene CBARA1): 2.1
- Full.fc (expression fold change for DUX4-fl targets) (gene CCNA1): 7.5
- Full.fc (expression fold change for DUX4-fl targets) (gene CCNJ): 2.7
- Full.fc (expression fold change for DUX4-fl targets) (gene CLDN14): 3.1
- Full.fc (expression fold change for DUX4-fl targets) (gene CLK1): 1.8
- Full.fc (expression fold change for DUX4-fl targets) (gene CSE1L): 2.9
- Full.fc (expression fold change for DUX4-fl targets) (gene CTNNAL1): 1.6
- Full.fc (expression fold change for DUX4-fl targets) (gene CTR9): 2.4
- Full.fc (expression fold change for DUX4-fl targets) (gene DBR1): 3.4
- Full.fc (expression fold change for DUX4-fl targets) (gene DDX47): 1.7
- Full.fc (expression fold change for DUX4-fl targets) (gene DEFB103A): 6.4
- Full.fc (expression fold change for DUX4-fl targets) (gene DENND2C): 2.6
- Full.fc (expression fold change for DUX4-fl targets) (gene EGLN1): 1.6
- Full.fc (expression fold change for DUX4-fl targets) (gene EXOSC10): 1.9
- Full.fc (expression fold change for DUX4-fl targets) (gene FAM90A1): 3.6
- Full.fc (expression fold change for DUX4-fl targets) (gene FBXO33): 3.2
- Full.fc (expression fold change for DUX4-fl targets) (gene FRG2B): 2
- Full.fc (expression fold change for DUX4-fl targets) (gene GPBAR1): 1.9
- Full.fc (expression fold change for DUX4-fl targets) (gene GTF2F1): 3.2
- Full.fc (expression fold change for DUX4-fl targets) (gene HOXB2): 2.2
- Full.fc (expression fold change for DUX4-fl targets) (gene JUP): 3.2
- Full.fc (expression fold change for DUX4-fl targets) (gene KDM5B): 1.8
- Full.fc (expression fold change for DUX4-fl targets) (gene KIF21A): 1.8
- Full.fc (expression fold change for DUX4-fl targets) (gene MAPKAP1): 1.6
- Full.fc (expression fold change for DUX4-fl targets) (gene MAST4): 1.7
- Full.fc (expression fold change for DUX4-fl targets) (gene MED13): 1.8
- Full.fc (expression fold change for DUX4-fl targets) (gene NANS): 1.9
- Full.fc (expression fold change for DUX4-fl targets) (gene NFYA): 2.3
- Full.fc (expression fold change for DUX4-fl targets) (gene PABPN1): 2.6
- Full.fc (expression fold change for DUX4-fl targets) (gene PANX2): 3.8
- Full.fc (expression fold change for DUX4-fl targets) (gene PELI1): 2.9
- Full.fc (expression fold change for DUX4-fl targets) (gene PNP): 7
- Full.fc (expression fold change for DUX4-fl targets) (gene PPP2R2B): 4.1
- Full.fc (expression fold change for DUX4-fl targets) (gene PRAMEF12): 7.8
- Full.fc (expression fold change for DUX4-fl targets) (gene PRPF18): 1.7
- Full.fc (expression fold change for DUX4-fl targets) (gene PRR4): 3.6
- Full.fc (expression fold change for DUX4-fl targets) (gene PTP4A1): 1.7
- Full.fc (expression fold change for DUX4-fl targets) (gene PVRL3): 2.2
- Full.fc (expression fold change for DUX4-fl targets) (gene RBBP6): 2
- Full.fc (expression fold change for DUX4-fl targets) (gene RFPL1): 8.4
- Full.fc (expression fold change for DUX4-fl targets) (gene RFPL2): 7.3
- Full.fc (expression fold change for DUX4-fl targets) (gene RFPL4B): 8.3
- Full.fc (expression fold change for DUX4-fl targets) (gene RTN4): 1.6
- Full.fc (expression fold change for DUX4-fl targets) (gene SAMD8): 1.6
- Full.fc (expression fold change for DUX4-fl targets) (gene SEC61A2): 1.8
- Full.fc (expression fold change for DUX4-fl targets) (gene SFRS2B): 4.2
- Full.fc (expression fold change for DUX4-fl targets) (gene SH3GL2): 1.6
- Full.fc (expression fold change for DUX4-fl targets) (gene SIAH1): 3.7
- Full.fc (expression fold change for DUX4-fl targets) (gene SNAI1): 1.9
- Full.fc (expression fold change for DUX4-fl targets) (gene SON): 2.1
- Full.fc (expression fold change for DUX4-fl targets) (gene SPRYD5): 1.8
- Full.fc (expression fold change for DUX4-fl targets) (gene SPTY2D1): 3.3
- Full.fc (expression fold change for DUX4-fl targets) (gene SRRT): 2.6
- Full.fc (expression fold change for DUX4-fl targets) (gene SYNJ1): 2.4
- Full.fc (expression fold change for DUX4-fl targets) (gene TAF4B): 1.9
- Full.fc (expression fold change for DUX4-fl targets) (gene TFIP11): 3.2
- Full.fc (expression fold change for DUX4-fl targets) (gene TRIM43): 8.1
- Full.fc (expression fold change for DUX4-fl targets) (gene TRIM48): 7.9
- Full.fc (expression fold change for DUX4-fl targets) (gene TRIM49L1): 6.9
- Full.fc (expression fold change for DUX4-fl targets) (gene TRIM49L2): 6.9
- Full.fc (expression fold change for DUX4-fl targets) (gene USP29): 2.6
- Full.fc (expression fold change for DUX4-fl targets) (gene ZNF217): 4.1
- Full.fc (expression fold change for DUX4-fl targets) (gene ZNF296): 5.5
- Full.fc (expression fold change for DUX4-fl targets) (gene ZNF705A): 3.9
- Full.fc (expression fold change for DUX4-fl targets) (gene ZSCAN4): 8.3
- Full.fc (expression fold change for DUX4-fl targets) (gene ZSCAN5B): 3.8
- Full.fc (expression fold change for DUX4-fl targets) (gene hCG_1651160): 8.3
